{"source": "ChEMBL document CHEMBL1201862", "about": "“PubChem BioAssay data set” (2004)", "key": {"[1]": {"molecular_target": "1-phosphatidylinositol 4,5-bisphosphate phosphodiesterase gamma-1 (Homo sapiens, UniProt P19174)", "sequence (P19174 whole entry)": "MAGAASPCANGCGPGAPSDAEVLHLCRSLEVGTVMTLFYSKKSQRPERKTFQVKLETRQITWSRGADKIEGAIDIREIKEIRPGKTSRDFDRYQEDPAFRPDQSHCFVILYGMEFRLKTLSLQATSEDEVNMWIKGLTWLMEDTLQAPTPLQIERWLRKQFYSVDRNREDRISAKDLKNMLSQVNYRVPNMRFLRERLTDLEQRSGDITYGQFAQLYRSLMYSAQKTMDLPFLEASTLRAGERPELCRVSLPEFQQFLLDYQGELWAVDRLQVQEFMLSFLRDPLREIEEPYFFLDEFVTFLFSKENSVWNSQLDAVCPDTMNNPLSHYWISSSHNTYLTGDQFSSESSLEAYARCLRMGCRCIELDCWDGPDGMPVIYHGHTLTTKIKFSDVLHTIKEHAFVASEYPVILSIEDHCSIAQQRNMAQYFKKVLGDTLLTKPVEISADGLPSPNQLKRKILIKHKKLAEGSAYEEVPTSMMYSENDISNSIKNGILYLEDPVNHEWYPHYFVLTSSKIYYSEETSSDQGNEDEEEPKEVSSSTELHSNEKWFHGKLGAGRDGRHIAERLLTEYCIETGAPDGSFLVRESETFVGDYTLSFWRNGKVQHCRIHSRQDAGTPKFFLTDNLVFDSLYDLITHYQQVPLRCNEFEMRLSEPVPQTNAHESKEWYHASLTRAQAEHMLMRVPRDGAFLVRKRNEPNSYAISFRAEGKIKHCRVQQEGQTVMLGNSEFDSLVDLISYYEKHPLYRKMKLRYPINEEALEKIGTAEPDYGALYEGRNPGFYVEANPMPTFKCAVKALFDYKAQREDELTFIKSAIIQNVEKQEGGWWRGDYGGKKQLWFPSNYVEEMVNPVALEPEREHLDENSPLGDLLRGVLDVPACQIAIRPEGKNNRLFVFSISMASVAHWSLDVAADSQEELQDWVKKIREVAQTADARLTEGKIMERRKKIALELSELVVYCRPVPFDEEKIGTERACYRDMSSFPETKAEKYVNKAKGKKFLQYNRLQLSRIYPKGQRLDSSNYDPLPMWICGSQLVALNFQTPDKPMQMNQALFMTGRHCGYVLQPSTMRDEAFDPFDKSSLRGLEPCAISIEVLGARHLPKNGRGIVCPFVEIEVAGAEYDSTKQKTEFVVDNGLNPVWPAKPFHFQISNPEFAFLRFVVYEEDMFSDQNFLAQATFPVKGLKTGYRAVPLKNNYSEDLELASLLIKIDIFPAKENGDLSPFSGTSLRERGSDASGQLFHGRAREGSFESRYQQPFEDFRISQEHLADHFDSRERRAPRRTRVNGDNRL", "experiment": "Counterscreen for inhibitors of phospholipase C isozymes (PLC-B3): Fluorescence-based biochemical high throughput dose response assay to identify inhibitors of phospholipase C isozymes (PLC-gamma1)."}, "[2]": {"molecular_target": "1-phosphatidylinositol 4,5-bisphosphate phosphodiesterase beta-3 (Homo sapiens, UniProt Q01970)", "experiment": "Fluorescence-based biochemical high throughput dose response assay to identify inhibitors of phospholipase C isozymes (PLC-B3)."}, "cells": {"experiment": "cells", "conditions": "HEK293"}, "[3]": {"molecular_target": "T1, Beta-2 adrenergic receptor (Homo sapiens, UniProt P07550)", "T1 sequence (P07550 whole entry)": "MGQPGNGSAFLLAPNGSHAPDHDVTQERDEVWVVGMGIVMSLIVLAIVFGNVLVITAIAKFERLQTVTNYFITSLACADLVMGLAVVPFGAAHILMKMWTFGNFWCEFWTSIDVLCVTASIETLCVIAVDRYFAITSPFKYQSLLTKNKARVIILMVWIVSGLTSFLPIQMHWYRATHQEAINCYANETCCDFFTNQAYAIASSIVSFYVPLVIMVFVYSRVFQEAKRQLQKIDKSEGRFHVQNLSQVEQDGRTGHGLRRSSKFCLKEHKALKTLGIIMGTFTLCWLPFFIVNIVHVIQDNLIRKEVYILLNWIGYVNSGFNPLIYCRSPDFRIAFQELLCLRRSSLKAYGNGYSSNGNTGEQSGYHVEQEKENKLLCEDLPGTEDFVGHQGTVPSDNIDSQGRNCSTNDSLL", "experiment": "Dose response for HTS for Beta-2AR agonists via FAP method from Powderset1.", "format": "functional"}, "[4]": {"molecular_target": "T1, Beta-2 adrenergic receptor", "experiment": "ADRB2 activation measured by internalization – cell-based, FAP fluorogen, flow cytometry, cherry pick 1, dose response (AID 588763)", "format": "functional"}, "[5]": {"tested_on": "Streptococcus sp. 'group A'", "experiment": "Streptococcus pyogenes SK(-)GAS viability under kanamycin – luminescence, BacTiterGlo, confirmation, counter-screen for streptokinase expression inhibitor project, dose response (AID 1900)", "format": "functional, organism-based"}, "Streptococcus": {"tested_on": "Streptococcus", "experiment": "GAS UMAA2166 growth inhibition – luminescence, BacTiterGlo, counter-screen for streptokinase expression inhibitor project, dose response (AID 1915);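 further: potency for reduction of bacterial viability or growth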", "format": "functional, organism-based"}, "[6]": {"experiment": "HGIII-sPLA2 enzyme inhibition potency – biochemical, QFRET, IC50, dose response (AID 743457);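 further: green fluorescence rise as the enzyme cleaves BODIPY PC-A2 in liposomes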"}, "Beta-galactosidase": {"molecular_target": "Beta-galactosidase (Escherichia coli, UniProt Q8VNN2)", "sequence (Q8VNN2 whole entry)": "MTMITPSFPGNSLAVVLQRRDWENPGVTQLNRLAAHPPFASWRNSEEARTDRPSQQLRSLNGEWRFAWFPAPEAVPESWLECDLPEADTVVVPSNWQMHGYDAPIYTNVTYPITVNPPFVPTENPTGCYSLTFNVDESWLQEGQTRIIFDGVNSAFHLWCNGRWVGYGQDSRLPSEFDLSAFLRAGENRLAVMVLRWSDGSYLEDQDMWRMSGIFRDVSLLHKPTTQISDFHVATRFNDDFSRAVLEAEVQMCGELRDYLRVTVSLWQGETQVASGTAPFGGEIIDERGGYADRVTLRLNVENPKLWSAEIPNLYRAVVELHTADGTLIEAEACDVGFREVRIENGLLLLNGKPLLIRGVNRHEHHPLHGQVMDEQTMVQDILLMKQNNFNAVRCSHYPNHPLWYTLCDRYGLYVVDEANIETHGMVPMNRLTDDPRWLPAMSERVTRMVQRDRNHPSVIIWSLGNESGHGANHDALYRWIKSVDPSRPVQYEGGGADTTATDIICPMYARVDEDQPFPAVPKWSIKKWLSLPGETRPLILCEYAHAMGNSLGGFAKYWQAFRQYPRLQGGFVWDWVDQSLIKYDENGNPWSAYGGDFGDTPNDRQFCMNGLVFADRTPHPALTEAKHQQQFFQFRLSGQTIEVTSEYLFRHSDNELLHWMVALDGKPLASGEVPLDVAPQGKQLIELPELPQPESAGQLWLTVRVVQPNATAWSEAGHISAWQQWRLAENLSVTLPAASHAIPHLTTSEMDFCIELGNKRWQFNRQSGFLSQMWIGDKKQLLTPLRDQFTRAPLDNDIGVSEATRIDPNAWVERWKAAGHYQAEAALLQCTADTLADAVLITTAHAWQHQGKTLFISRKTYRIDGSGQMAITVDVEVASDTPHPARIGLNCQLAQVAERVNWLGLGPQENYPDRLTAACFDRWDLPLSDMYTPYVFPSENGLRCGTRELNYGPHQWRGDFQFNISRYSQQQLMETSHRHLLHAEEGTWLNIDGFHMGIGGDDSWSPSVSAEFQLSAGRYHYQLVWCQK", "experiment": "Dose response counterscreen for EBI2 assay utilizing the enzyme, b-galactosidase.", "format": "functional"}, "Estrogen receptor beta [7]": {"molecular_target": "T2, Estrogen receptor beta (Homo sapiens, UniProt Q92731)", "T2 sequence (Q92731 whole entry)": "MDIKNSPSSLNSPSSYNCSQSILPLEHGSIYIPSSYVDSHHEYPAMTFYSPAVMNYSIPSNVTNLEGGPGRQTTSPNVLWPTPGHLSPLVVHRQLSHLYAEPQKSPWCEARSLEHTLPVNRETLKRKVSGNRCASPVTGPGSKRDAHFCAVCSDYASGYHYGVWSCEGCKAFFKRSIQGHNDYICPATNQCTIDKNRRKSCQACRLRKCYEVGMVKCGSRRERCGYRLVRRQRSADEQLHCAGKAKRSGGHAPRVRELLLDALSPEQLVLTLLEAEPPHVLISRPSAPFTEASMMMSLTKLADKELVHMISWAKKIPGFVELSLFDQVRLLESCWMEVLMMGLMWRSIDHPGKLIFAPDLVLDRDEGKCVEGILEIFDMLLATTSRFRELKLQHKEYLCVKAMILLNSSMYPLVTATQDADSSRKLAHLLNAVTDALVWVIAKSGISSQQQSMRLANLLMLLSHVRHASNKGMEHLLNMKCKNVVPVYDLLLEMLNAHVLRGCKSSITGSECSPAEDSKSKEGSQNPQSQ"}, "Estrogen receptor beta [8]": {"molecular_target": "T2, Estrogen receptor beta", "experiment": "blockers of SRC-3 recruitment to ERβ – biochemical, ELISA, streptavidin-HRP readout, orthogonal assay, confirmation (AID 1060)"}, "[9]": {"experiment": "viability loss in HEK293T cells – cell-based, cherry-picks, cytotoxicity control for HIV Vif inhibitor project, dose response (AID 652208)", "format": "functional"}, "[10]": {"experiment": "toxicity toward HepG2 liver cells – cell-based, plate reader, cherry-pick, antagonist series, cytotoxicity control, dose response (AID 743416)", "format": "functional"}, "[11]": {"experiment": "blockers of bursicon-stimulated LGR2 cAMP reporter – cell-based, HEK293, CRE-luciferase reporter, cherry pick, set 2, dose response (AID 743343);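 further: transfected cells were stimulated with diluted bursicon conditioned medium after compound addition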", "format": "functional"}, "[12]": {"experiment": "blockade of melanocortin 4 receptor signaling – cell-based, plate reader, cherry pick, counter-screen for LGR2 antagonist project, dose response (AID 743444);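 further: transfected HEK 293 cells stimulated with alpha-MSH peptide; potency of inhibitors of the alpha-MSH evoked signal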", "format": "functional"}, "[13]": {"experiment": "viability loss in HEK293 cells – cell-based, plate reader, cherry-picked samples, cytotoxicity control, dose response (AID 743446)", "format": "functional"}, "Genome polyprotein": {"molecular_target": "Genome polyprotein (dengue virus type 2, UniProt P29990)", "sequence (P29990 2492-3391 limits assumed)": "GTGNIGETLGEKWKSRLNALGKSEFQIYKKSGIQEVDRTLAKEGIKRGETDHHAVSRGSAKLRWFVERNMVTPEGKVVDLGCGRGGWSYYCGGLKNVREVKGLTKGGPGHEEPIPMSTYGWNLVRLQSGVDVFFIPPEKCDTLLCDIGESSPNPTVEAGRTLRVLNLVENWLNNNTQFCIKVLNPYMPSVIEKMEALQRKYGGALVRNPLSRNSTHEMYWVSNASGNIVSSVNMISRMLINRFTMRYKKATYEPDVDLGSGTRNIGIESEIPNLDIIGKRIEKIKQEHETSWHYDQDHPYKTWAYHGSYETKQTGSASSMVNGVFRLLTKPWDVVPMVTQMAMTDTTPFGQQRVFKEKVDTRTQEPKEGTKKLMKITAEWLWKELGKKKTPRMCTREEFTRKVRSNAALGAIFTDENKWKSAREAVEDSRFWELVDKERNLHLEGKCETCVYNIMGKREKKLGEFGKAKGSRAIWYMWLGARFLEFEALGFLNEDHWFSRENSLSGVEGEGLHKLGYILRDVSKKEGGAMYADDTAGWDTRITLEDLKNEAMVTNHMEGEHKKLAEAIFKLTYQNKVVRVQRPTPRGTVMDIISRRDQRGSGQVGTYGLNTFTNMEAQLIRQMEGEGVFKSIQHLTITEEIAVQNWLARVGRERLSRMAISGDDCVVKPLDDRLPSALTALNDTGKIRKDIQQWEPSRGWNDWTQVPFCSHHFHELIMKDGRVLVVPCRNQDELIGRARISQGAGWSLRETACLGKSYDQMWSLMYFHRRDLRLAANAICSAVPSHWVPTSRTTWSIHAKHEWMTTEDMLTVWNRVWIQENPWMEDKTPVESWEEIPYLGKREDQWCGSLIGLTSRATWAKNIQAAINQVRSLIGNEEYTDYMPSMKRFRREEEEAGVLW", "experiment": "flavivirus cap methylation enzyme inhibition – biochemical, confirmation dose response, primary screen (AID 588689)", "format": "functional"}, "Caspase-6": {"molecular_target": "T3, Caspase-6 (Homo sapiens, UniProt P55212)", "T3 sequence (P55212 whole entry)": "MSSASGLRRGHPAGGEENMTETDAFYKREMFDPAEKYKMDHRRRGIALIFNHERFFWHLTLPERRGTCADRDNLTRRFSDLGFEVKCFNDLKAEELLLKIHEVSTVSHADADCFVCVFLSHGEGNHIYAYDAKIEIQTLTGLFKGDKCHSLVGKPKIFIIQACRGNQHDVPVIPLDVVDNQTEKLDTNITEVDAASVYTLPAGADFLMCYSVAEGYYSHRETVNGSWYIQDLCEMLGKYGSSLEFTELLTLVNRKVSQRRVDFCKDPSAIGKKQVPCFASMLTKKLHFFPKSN", "experiment": "inhibition of CASP6 peptide cleavage – biochemical, VEID-R110 fluorescence, cherry-pick, dose response (AID 720632)"}, "Caspase-7": {"molecular_target": "Caspase-7 (Homo sapiens, UniProt P55210)", "sequence (P55210 24-198 limits assumed)": "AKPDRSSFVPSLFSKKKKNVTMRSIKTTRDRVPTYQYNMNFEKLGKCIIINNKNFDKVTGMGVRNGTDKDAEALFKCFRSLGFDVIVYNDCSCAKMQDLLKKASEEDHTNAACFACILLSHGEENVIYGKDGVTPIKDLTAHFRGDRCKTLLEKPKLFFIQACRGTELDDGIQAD", "sequence (P55210 207-303 limits assumed)": "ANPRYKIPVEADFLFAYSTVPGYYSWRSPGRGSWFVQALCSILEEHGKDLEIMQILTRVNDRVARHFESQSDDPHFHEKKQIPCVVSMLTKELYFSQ", "experiment": "caspase-7 enzyme inhibition, selectivity check – biochemical, DEVD-R110 fluorescence, cherry-pick, selectivity assay for caspase-6 inhibitor project, dose response (AID 743295)", "format": "functional"}, "Caspase-3": {"molecular_target": "T4, Caspase-3 (Homo sapiens, UniProt P42574)", "T4 sequence (P42574 whole entry)": "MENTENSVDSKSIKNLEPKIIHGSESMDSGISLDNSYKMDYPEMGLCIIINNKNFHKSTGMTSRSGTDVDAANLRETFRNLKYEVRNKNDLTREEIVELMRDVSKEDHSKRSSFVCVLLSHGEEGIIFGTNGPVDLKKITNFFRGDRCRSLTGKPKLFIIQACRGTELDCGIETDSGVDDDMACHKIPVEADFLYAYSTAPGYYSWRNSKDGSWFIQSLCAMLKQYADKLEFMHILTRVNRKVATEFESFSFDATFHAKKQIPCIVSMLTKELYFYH", "experiment": "human caspase-3 protease activity blockade – biochemical, fluorescence, cherry-picked samples, selectivity assay for caspase-6 allosteric inhibitor project, dose response (AID 743291)"}}, "note": "“And” between values parts separate entries of the source, which are not always exact repeats. Equal values may be shown once. The source made the active and inactive calls.", "data": [{"smiles": "O=C1C[S+]([O-])CN1c1ccc(Oc2ccccc2)cc1", "note": "(stereo unspecified)", "values": [{"measurement": "IC50", "setting": "[1]", "value": "12.5 µM (inactive)"}, {"measurement": "IC50", "setting": "[2]", "value": "> 122 µM (inactive)"}]}, {"smiles": "CCOCCCN=C(S)N1CCCN(c2nc3cc(C)c(C)cc3cc2C#N)CC1", "values": [{"measurement": "AC50", "setting": "cells", "value": "> 52 µM (inactive)"}]}, {"smiles": "Cc1ccc(OCC(=O)Nc2ccc(-c3nc4ncccc4o3)cc2)c(C)c1", "values": [{"measurement": "EC50", "setting": "[3]", "value": "0.503 µM (active)"}, {"measurement": "EC50", "setting": "[4]", "value": "316 nM (active) and 92.7 nM (active)"}]}, {"smiles": "Cc1ccc(C(=O)NC(=S)NNC(=O)c2ccccc2O)cc1", "values": [{"measurement": "EC50", "setting": "[5]", "value": "1.29 µM (active)"}, {"measurement": "EC50", "setting": "Streptococcus", "value": "5.63 µM (active)"}, {"measurement": "IC50", "setting": "[6]", "value": "> 122 µM (inactive)"}]}, {"smiles": "O=C(/C=C/c1ccc([N+](=O)[O-])cc1)N1CCN(S(=O)(=O)c2cccs2)CC1", "values": [{"measurement": "IC50", "setting": "Beta-galactosidase", "value": "> 80 µM (inactive)"}]}, {"smiles": "CCOc1c(C(N)=O)c(-c2ccccc2)c2c(O)nc3ccccc3n12", "values": [{"measurement": "IC50", "setting": "Estrogen receptor beta [7]", "value": "33.6 µM (not active)"}, {"measurement": "IC50", "setting": "Estrogen receptor beta [8]", "value": "> 50 µM (not active)"}, {"measurement": "AC50", "setting": "[9]", "value": "49.9 µM (active)"}]}, {"smiles": "COc1ccc(NC(=O)Nc2cccc([N+](=O)[O-])c2)cc1Cl", "values": [{"measurement": "AC50", "setting": "[10]", "value": "26.8 µM (active)"}, {"measurement": "AC50", "setting": "[11]", "value": "33.1 µM (active)"}, {"measurement": "AC50", "setting": "[12]", "value": "34.3 µM (active)"}, {"measurement": "AC50", "setting": "[13]", "value": "> 52 µM (inactive)"}]}, {"smiles": "CC(Cc1ccc(O)cc1)NCC(O)c1ccc(O)c(O)c1", "note": "(stereo unspecified)", "values": [{"measurement": "IC50", "setting": "Genome polyprotein", "value": "> 100 µM (active)"}, {"measurement": "EC50", "setting": "[4]", "value": "553 nM (active)"}, {"measurement": "AC50", "setting": "Caspase-6", "value": "3.68 µM (active)"}, {"measurement": "AC50", "setting": "Caspase-7", "value": "> 70 µM (inactive)"}, {"measurement": "AC50", "setting": "Caspase-3", "value": "24.5 µM (active)"}]}]}
